Patent publication US9322049B2, “Activation and activators of SirT6” (CORNELL UNIVERSITY, priority 2009, dated 2016)
Like-named read-outs stand apart in the source and are kept apart here. Blank lines part the entries; values can stand above or below the molecule they belong to.

Assays:
[1] = target: T1, SirT6 (Homo sapiens, UniProt Q8N6T7); test: Activation of SIRT6 by nucleosides or nucleotides, HPLC of AADPR (Example 8); type: biochemical; conditions: 800 μM NAD+, 500 μM H3 peptide, 11.3 μM SIRT6
T1 construct: The protein expression and purification were the same as the full length SIRT6 as described above; made in house; host or cells: E. coli BL21 Codon-plus RIPL
T1 sequence (Q8N6T7 whole entry): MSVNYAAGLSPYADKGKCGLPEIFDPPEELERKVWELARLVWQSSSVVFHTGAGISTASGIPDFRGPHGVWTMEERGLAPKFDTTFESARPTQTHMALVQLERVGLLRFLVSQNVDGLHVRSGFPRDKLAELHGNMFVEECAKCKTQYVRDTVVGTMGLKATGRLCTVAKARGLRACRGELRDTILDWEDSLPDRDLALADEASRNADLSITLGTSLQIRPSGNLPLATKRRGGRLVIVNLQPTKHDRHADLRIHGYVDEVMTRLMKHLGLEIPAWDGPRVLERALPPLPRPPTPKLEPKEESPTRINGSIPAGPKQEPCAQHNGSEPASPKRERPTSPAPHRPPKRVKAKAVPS
Procedure: Reactions containing 800 μM NAD^+, 500 μM H3 peptide, and 100 mM phosphate buffer at pH 7.5, with varying concentrations of nucleosides or nucleotides were initiated by addition of SIRT6 enzyme to a concentration of 11.3 μM. Reactions were incubated for 2 hours at 37° C. and quenched by addition of trifluoroacetic acid to pH 2. After centrifugation to remove precipitates, reactions were injected on HPLC for activity analysis. Production of 2′- and 3′-AADPR were analyzed at 260 nm.

[2] = target: T1, SirT6; test: Gel shift assay of DNA association to SirT6 (Example 5); type: binding; conditions: 1 mM suramin; 50 ng/μl linearized pSTBlue, 10 μM SirT6
Procedure: Lane 1, DNA+NAD; Lane 2, DnA+H3; Lane 3, DNA+NAD+H3; Lane 4, DNA+SirT6; Lane 5, DNA+NAD+SirT6; Lane 6, DNA+H3+SirT6; Lane 7, DNA+NAD+H3+SirT6; Lane 8, DNA+SirT6+1 mM suramin; Lane 9, DNA+NAD+SirT6+1 mM suramin; Lane 10, DNA+H3+SirT6+1 mM suramin; Lane 11, DNA+NAD+H3+SirT6+1 mM suramin; Lane 12, DNA only. […] Lane 1, DNA+H3; Lane 2, DNA+H4; Lane 3, DNA+SirT6; Lane 4, DNA+H3+SirT6; Lane 5, DNA+H4+SirT6; Lane 6, DNA+NAD+H3+SirT6; Lane 7, DNA+NAD+H4+SirT6; Lane 8, DNA+SirT6+1 mM suramin; Lane 9, DNA+H3+SirT6+1 mM suramin; Lane 10, DNA+H4+SirT6+1 mM suramin; Lane 11, DNA+NAD+H3+SirT6+1 mM suramin; Lane 12, DNA+NAD+H4+SirT6+1 mM suramin; Lane 13, DNA only. 6 μl of each sample involving 50 ng/μl linearized pSTBlue plasmid, 800 μM NAD, 10 μM SirT6, 480 μM H3/H4, and/or 1 mM suramin were loaded to 0.6% native agarose gel containing ethidium bromide and ran at 100 V for one and half hours. DNA bound to SirT6 stayed in the wells and free DNA ran to the bottom of the gel. The top arrow indicated the large complex formed by DNA and SirT6.
The plasmid pSTBlue was linearized by EcoRI, BamHI, or EcoRV, and then purified by DNA gel extraction kit (Novagen) or […]™ III kit (MP Biomedicals, LLC). 6 μl of each sample contained 50 ng/μl of linearized pSTBlue, 800 μM NAD, 10 μM SirT6/truncated form, 480 μM H3, and/or 1 mM suramin as indicated. […]

[3] = target: T2, truncated SirT6 (deletion of N terminal 17 amino acids) (Homo sapiens, UniProt Q8N6T7); test: Deacetylation rate of truncated SirT6 with suramin or single stranded DNA; type: biochemical; conditions: 50 μM suramin or 100 ng/μl single stranded DNA; 800 μM NAD, 480 μM H3, 10 μM enzyme
T2 construct: The truncated SIRT6 was cloned similarly with the full length SIRT6; poly-histidine (pET28a) (N); made in house; host or cells: E. coli BL21 Codon-plus RIPL
T2 sequence (Q8N6T7 with tags, fused parts or gaps): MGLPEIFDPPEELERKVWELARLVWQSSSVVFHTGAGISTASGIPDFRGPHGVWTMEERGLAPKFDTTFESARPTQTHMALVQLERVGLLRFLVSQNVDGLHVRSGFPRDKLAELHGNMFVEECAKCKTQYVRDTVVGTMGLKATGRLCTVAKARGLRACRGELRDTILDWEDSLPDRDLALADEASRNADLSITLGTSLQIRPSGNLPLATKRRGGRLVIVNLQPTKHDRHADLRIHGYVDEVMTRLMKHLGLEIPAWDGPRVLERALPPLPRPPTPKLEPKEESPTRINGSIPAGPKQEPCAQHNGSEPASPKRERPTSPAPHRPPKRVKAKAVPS
Description: The deacetylation rate of different truncated SirT6 was normalized to the rate of full length SirT6 for the comparison.
The truncated SIRT6 was cloned similarly with the full length SIRT6. The primers used in the cloning of different truncated SIRT6 are the following: SIRT6Δ2-7 Forward 5′ GCTAGC ATGGGGCTGTCGCCGTACGCG 3′ (SEQ ID NO: 4); SIRT6Δ2-12 Forward 5′ GCTAGC ATG […] 3′ (SEQ ID NO: 5); SIRT6Δ2-18 Forward 5′ GCTAGC ATGGGCCTCCCGGAGATCTTCGAC 3′ (SEQ ID NO: 6); SIRT6Δ2-51 Forward 5′ 5′ GCTAGC ATGACGGGTGCCGGCATCAGCACT 3′ (SEQ ID NO: 7). The common reverse primer is 5′[…] 3′ (SEQ ID NO: 8). The truncated SIRT6 was amplified by PCR reaction. The PCR product was then ligated into pSTblue-1 (Novagen). After digestion with NheI and BamHI, the fragment containing SIRT6 gene was ligated into pET28a vector (Novagen). The SIRT6 truncated sequence in pET28a plasmid was confirmed by DNA sequencing, and the plasmid was then transformed into BL21Codon-plus RIPL cells (Stratagene). The protein expression and purification were the same as the full length SIRT6 as described above.

[4] = target: T1, SirT6; test: Determination of Kd of suramin for SirT6 activation by HPLC (Example 1); type: biochemical
Procedure: FIG. 2C depicts the determination of Kd of suramin for activation of SirT6. […] After 2 hours incubation at 37° C., the deacetylated H3 was separated from H3 by gradient (0˜30%) acetonitrile in 0.1% TFA using a C18 column, and analyzed by integrating its area at 215 nm wavelength.
The precipitated proteins and other insolubles were removed by centrifugation at 15,000 rpm for 5 minutes. The peptides were separated by a Waters Xterra RP-18 column using a gradient of 0-30% acetonitrile in 0.1% trifluoroacetic acid. […] The turnover rates versus […] were plotted and fitted to the equation: Activation (Fold)=1+m*x/(Kd+x) using the software Kaleidagraph.

[5] = target: T3, SirT6-DNA complex (Homo sapiens, UniProt Q8N6T7); test: Suramin competition with binding of linearized DNA to SIRT6 (Example 6); conditions: for Kd: read-out: Kd of suramin for dissociation of linearized DNA from SirT6
T3 construct: The protein expression and purification were the same as the full length SIRT6 as described above; made in house; host or cells: E. coli BL21 Codon-plus RIPL
T3 sequence (Q8N6T7 whole entry, one chain of several): as the sequence (Q8N6T7 whole entry) above
Procedure: The linearized DNA was incubated with SirT6 and Ni-NTA resin. The resin was washed as described in Materials and Methods, and the complex of SirT6-DNA was dissociated by 1 mM suramin. The parallel experiments were done in the presence of 500 uM H3 peptide. DNA bound to SirT6 was quantified and fit to Michaelis-Menten equation to get Kd of DNA binding to the enzyme. […] The single stranded DNA was incubated with SirT6 and Ni-NTA resin. The resin was washed and the complex of SirT6-ssDNA was dissociated by 1 mM suramin. The parallel experiments were done in the presence of 500 uM H3 peptide. […] The linearized DNA was incubated with SirT6 and Ni-NTA resin with or without H3 peptide. After washing, the resin was incubated with different concentration of surmain. The dissociated DNA was quantified by gel electrophoresis. […] After the resin was washed, DNA was dissociated with 1 mM suramin and quantified by gel electrophoresis. Lane 1, 150 ng circular pSTBlue (C-pSTBlue); Lane 2, 150 ng pSTBlue cut with BamHI (B-pSTBlue); Lane 3, 150 ng pSTBlue cut with EcoRV (E-pSTBlue); Lane 4, circular pSTBlue bound to SirT6; Lane 5, pSTBlue cut with BamHI bound to SirT6; Lane 6, pSTBlue cut with EcoRV bound to SirT6; Lane 7, circular pSTBlue bound to SirT6 in the presence of H3; Lane 8, pSTBlue cut with BamHI bound to SirT6 in the presence of H3; Lane 9, pSTBlue cut with EcoRV bound to SirT6 in the presence of H3; Lane 10, DNA ladder.
In order to test if suramin competed with the binding of DNA to SIRT6, 20 ng/μl pSTBlue was incubated with 5 μM SIRT6, 25% slurry Ni-NTA resin, and/or 1 mM H3 peptide. After incubation for 1 hour at room temperature, the SIRT6-DNA-resin complex was washed with 10 and 20 mM imidazole, 100 mM phosphate buffer, pH 7.5 as described above. The SIRT6-DNA-resin complex was incubated with different concentrations of suramin. The dissociated DNA was then quantified by 0.8% agarose gel electrophoresis and the DNA level was fitted to Michaelis-Menten equation using the software Kaleidagraph.

[6] = target: T1, SirT6; test: Determination of Kd of DNA for SirT6 activation by HPLC (Example 2); type: biochemical; conditions: 800 μM NAD, 480 μM H3, 10 μM SirT6, 2 hours 37° C.; unit given as mM
Procedure: FIG. 5A depicts a schematic of DNA structure. […] After 2 hours incubation at 37° C., either the deacetylated H3 was separated from H3 in the reaction containing the digested calf thymus DNA or AADPR was separated from other components in the reaction containing ssDNA, the plasmid, or dsDNA.
The plasmid pSTBlue was digested with BamHI and EcoRV and purified by […]™ III kit. […] The AADPR was separated by HPLC and the quantified data were fit into Michaelis-Menten equation to get Km of H3.
In the enzymatic reaction, the following DNA was used.
Calf thymus DNA (USB Corporation), which was digested with EcoRI and then purified using Spinprep Gel DNA Kit (Novagen);
ssDNA (5′ […] 3′ (SEQ ID NO: 9), Integrated DNA Technologies);
dsDNA (forward 5′ […] 3′ (SEQ ID NO: 10), reverse 5′ […] 3′ (SEQ ID NO: 11), Integrated DNA Technologies); and
pSTBlue plasmid, which was amplified using DH5α cells and purified by WIZARD™ PLUS (Midiprep) DNA purification system (Promega).
The precipitated proteins and other insolubles were removed by centrifugation at 15,000 rpm for 5 minutes. DNA in the supernatant was further removed by centrifugation at 15,000 rpm for 10 minutes using Microcon with 10 kDa cutoff (Millipore). In the experiment with the digested calf thymus DNA, the peptides were separated by a Waters Xterra RP-18 column using a gradient of 0-30% acetonitrile in 0.1% trifluoroacetic acid. […]

SIRT6 activated ([1]; at 1 mM): 30% activated at 1 mM
Molecule: NC(=O)c1ccc[n+]([C@@H]2O[C@H](CO)C(O)C2(Cl)Cl)c1 (stereo partly drawn) [gem-diCl-NR]

SIRT6 activated ([1]; at 500 μM): 90% activated at 500 μM
Molecule: NC(=O)c1ccc[n+]([C@@H]2O[C@H](COP(=O)([O-])O)C(O)C2(Cl)Cl)c1 (stereo partly drawn) [gem-diCl-NMN]

SIRT6 activated ([1]; at 550 μM): 17% activated at 550 μM
Molecule: NC(=O)c1ccc[n+]([C@@H]2O[C@H](CO)[C@H](O)C2F)c1 (stereo partly drawn) [ribo-F-NR, 1-(2-deoxy-2-fluoro-D-ribofuranosyl)-nicotinamide]

Association of DNA to SirT6 [2]: weakened | Activation of truncated SirT6 deacetylation [3]: lost of activation | Kd [4]: 54.7 µM | Vmax of dissociated DNA ([5]; in the absence of H3): 6.37 ng/µL | Kd ([5]; in the absence of H3): 72.4 µM | Vmax of dissociated DNA ([5]; in the presence of H3): 17.8 ng/µL | Kd ([5]; in the presence of H3): 129 µM
Molecule: Cc1ccc(C(=O)Nc2ccc(S(=O)(=O)O)c3cc(S(=O)(=O)O)cc(S(=O)(=O)O)c23)cc1NC(=O)c1cccc(NC(=O)Nc2cccc(C(=O)Nc3cc(C(=O)Nc4ccc(S(=O)(=O)O)c5cc(S(=O)(=O)O)cc(S(=O)(=O)O)c45)ccc3C)c2)c1 [suramin]

SIRT6 activated ([1]; at 500 μM): 30% activated at 500 μM
Molecule: NC(=O)c1ccc[n+]([C@@H]2O[C@H](CO)[C@@H](O)C2(F)F)c1 [gem-diF-NR, 1-(2′-deoxy-2′,2′-difluoro-ribofuranosyl)-nicotinamide]

B1: dsDNA: dsDNA, forward SEQ ID NO: 10, reverse SEQ ID NO: 11, Integrated DNA Technologies (nucleic acid)
sense: AAGCATTTATCAGGGTTATTGTCTCATGAGCGGAT
antisense: ATCCGCTCATGAGACAATAACCCTGATAAATGCTT
modifications: DNA, backbone and methylation of C not given here
Kd [6]: > 10 mM
